Data reported in patent US20250179103A1, “6-OXODECAHYDROPYRROLO[1,2-A][1,5]DIAZOCINE AND 6-OXODECAHYDRO-4H-PYRROLO[2,1-D][1,5]THIAZOCINE DERIVATIVES AS STAT3 AND STAT6 MODULATORS FOR THE TREATMENT OF CANCER AND INFLAMMATORY CONDITIONS” (Recludix Pharma, Inc., priority 2022, published 2025).

Assays:
[1] = target: T1, Recombinant STAT3 protein (STAT3(G127-I722)) (Homo sapiens, UniProt P40763); assay: STAT3 Fluorescence Polarization (FP) Assay; format: binding; conditions: STAT3(G127-I722) 25 nM, probe 5-FAM-GpYLPQTV-NH2 2 nM, 45-minute incubation
T1 construct: Recombinant STAT3 protein (STAT3(G127-I722))
T1 sequence (P40763 127-722): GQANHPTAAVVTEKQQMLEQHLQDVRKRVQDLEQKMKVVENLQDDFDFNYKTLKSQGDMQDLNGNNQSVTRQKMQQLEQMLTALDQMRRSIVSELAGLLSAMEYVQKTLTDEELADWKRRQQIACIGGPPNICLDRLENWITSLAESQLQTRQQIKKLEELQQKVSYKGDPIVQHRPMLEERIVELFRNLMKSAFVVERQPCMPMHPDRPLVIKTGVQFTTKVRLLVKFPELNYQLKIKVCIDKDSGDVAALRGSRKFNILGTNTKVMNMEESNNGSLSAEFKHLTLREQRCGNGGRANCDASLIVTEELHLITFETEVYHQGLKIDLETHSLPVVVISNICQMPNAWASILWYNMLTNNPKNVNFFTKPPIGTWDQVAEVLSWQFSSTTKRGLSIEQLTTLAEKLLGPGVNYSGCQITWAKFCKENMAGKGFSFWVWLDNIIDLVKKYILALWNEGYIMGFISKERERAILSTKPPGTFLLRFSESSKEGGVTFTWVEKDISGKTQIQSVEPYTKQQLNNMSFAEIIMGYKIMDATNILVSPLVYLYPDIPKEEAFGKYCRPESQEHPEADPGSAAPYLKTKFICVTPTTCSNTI
In short: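 Fluorescence polarization after a 45-min room-temperature incubation measured compound displacement of a 2 nM fluorescein-labelled phosphotyrosine peptide (5-FAM-GpYLPQTV-NH2) from 25 nM recombinant STAT3(G127-I722). Buffer was 10 mM HEPES pH 7.4 with 1% DMSO final. IC50s were fitted by nonlinear regression of mP against log concentration.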

[2] = target: T2, Recombinant STAT6 protein (STAT6(W123-T658)) (Homo sapiens, UniProt P42226); assay: STAT6 Fluorescence Polarization (FP) Assay; format: binding; conditions: STAT6(W123-T658) 250 nM, probe 5-FAM-ApYKPFQDLI-NH2 2 nM, 45-minute incubation
T2 construct: Recombinant STAT6 protein (STAT6(W123-T658))
T2 sequence (P42226 123-658): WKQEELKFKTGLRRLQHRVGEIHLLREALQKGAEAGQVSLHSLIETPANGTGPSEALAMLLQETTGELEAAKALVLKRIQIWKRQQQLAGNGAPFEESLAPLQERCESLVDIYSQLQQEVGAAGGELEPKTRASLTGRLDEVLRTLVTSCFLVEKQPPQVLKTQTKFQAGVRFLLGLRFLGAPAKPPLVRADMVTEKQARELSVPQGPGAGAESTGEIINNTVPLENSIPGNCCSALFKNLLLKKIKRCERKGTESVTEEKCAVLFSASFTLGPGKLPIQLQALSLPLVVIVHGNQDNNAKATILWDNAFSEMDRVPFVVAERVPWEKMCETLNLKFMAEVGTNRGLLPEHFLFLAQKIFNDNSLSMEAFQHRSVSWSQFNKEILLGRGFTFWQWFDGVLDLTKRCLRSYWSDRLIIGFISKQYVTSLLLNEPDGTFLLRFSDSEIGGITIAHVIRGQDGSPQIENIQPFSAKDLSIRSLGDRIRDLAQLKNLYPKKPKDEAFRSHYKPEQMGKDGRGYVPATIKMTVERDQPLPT
In short: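 Displacement of a fluorescent phosphotyrosine peptide (5-FAM-ApYKPFQDLI-NH2, 2 nM) from STAT6(W123-T658) (250 nM), 1% DMSO, pH 7.4 HEPES buffer. After 45 min at room temperature, polarization (mP) was plotted versus log compound concentration and fitted by nonlinear regression to give IC50.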

Row | Structure (SMILES) | IC50 [1] [nM] | IC50 [2] [µM]
1 | CC(=O)N1CC[C@H]2CC[C@@H](C(=O)Nc3ccc4ccccc4c3)N2C(=O)[C@@H](NC(=O)c2cc3cc(C(F)(F)P(=O)(O)O)ccc3s2)C1 [Compound 173, ((2-(((5S,8S,10aR)-3-acetyl-8-(naphthalen-2-ylcarbamoyl)-6-oxodecahydropyrrolo[1,2-a][1,5]diazocin-5-yl)carbamoyl)benzo[b]thiophen-5-yl)difluoromethyl)phosphonic acid] | 100 to 1000 | 0.3 to 3
2 | CC(=O)N1CC[C@H]2CC[C@@H](C(=O)N3CCC(C(N)=O)c4cc(-c5ccccc5)ccc43)N2C(=O)[C@@H](NC(=O)c2cc3cc(C(F)(F)P(=O)(O)O)ccc3s2)C1 (stereo partly drawn) [Compound 116, ((2-(((5S,8S,10aR)-3-acetyl-8-(4-carbamoyl-6-phenyl-1,2,3,4-tetrahydroquinoline-1-carbonyl)-6-oxodecahydropyrrolo[1,2-a][1,5]diazocin-5-yl)carbamoyl)benzo[b]thiophen-5-yl)difluoromethyl)phosphonic acid] | 100 to 1000 | 0.3 to 3
3 | CC(=O)N1CC[C@H]2CC[C@@H](C(=O)N(C)c3ccc(C(C)(C)C#N)cc3)N2C(=O)[C@@H](NC(=O)c2cc3cc(C(F)(F)P(=O)(O)O)ccc3s2)C1 [Compound 2, ((2-(((5S,8S,10aR)-3-acetyl-8-((4-(2-cyanopropan-2-yl)phenyl)(methyl)carbamoyl)-6-oxodecahydropyrrolo[1,2-a][1,5]diazocin-5-yl)carbamoyl)benzo[b]thiophen-5-yl)difluoromethyl)phosphonic Acid] | > 10000 | 0.3 to 3
4 | CN(C(=O)[C@@H]1CC[C@@H]2CCN(C(=O)Cc3ccccc3)C[C@H](NC(=O)c3cc4cc(C(F)(F)P(=O)(O)O)ccc4[nH]3)C(=O)N21)c1ccccc1 [Compound 3, (difluoro(2-(((5S,8S,10aR)-8-(methyl(phenyl)carbamoyl)-6-oxo-3-(2-phenylacetyl)decahydropyrrolo[1,2-a][1,5]diazocin-5-yl)carbamoyl)-1H-indol-5-yl)methyl)phosphonic acid] | 1000 to 10000 | 0.3 to 3
5 | C[C@@H](C(=O)N1CC[C@H]2CC[C@@H](C(=O)Nc3ccc(-c4ccccc4)cc3)N2C(=O)[C@@H](NC(=O)c2cc3cc(C(F)(F)P(=O)(O)O)ccc3[nH]2)C1)c1ccccc1 [Compound 254, ((2-(((5S,8S,10aR)-8-([1,1′-biphenyl]-4-ylcarbamoyl)-6-oxo-3-((R)-2-phenylpropanoyl)decahydropyrrolo[1,2-a][1,5]diazocin-5-yl)carbamoyl)-1H-indol-5-yl)difluoromethyl)phosphonic acid] | 1000 to 10000 | 0.3 to 3
6 | CC(=O)N1CC[C@H]2CC[C@@H](C(=O)N(C)CC(C)(C)O)N2C(=O)[C@@H](NC(=O)c2cc3cc(C(F)(F)P(=O)(O)O)ccc3s2)C1 [Compound 91, ((2-(((5S,8S,10aR)-3-acetyl-8-((2-hydroxy-2-methylpropyl)(methyl)carbamoyl)-6-oxodecahydropyrrolo[1,2-a][1,5]diazocin-5-yl)carbamoyl)benzo[b]thiophen-5-yl)difluoromethyl)phosphonic acid] | 1000 to 10000 | 0.3 to 3
7 | CC(C)C(=O)N1CC[C@H]2CC[C@@H](C(=O)N(C)c3ccccc3)N2C(=O)[C@@H](NC(=O)c2cc3cc(C(F)(F)P(=O)(O)O)ccc3[nH]2)C1 [Compound 221, (difluoro(2-(((5S,8S,10aR)-3-isobutyryl-8-(methyl(phenyl)carbamoyl)-6-oxodecahydropyrrolo[1,2-a][1,5]diazocin-5-yl)carbamoyl)-1H-indol-5-yl)methyl)phosphonic acid] | 1000 to 10000 | 0.3 to 3
8 | CC(=O)N1CC[C@H]2CC[C@@H](C(=O)N(C)c3ccccc3)N2C(=O)[C@@H](NC(=O)c2ccc3ccc(C(F)(F)P(=O)(O)O)cc3c2)C1 [Compound 111, ((7-(((5S,8S,10aR)-3-acetyl-8-(methyl(phenyl)carbamoyl)-6-oxodecahydropyrrolo[1,2-a][1,5]diazocin-5-yl)carbamoyl)naphthalen-2-yl)difluoromethyl)phosphonic acid] | > 10000 | 0.3 to 3
9 | CC(=O)N1CC[C@H]2CC[C@@H](C(=O)N3CC[C@H](Cc4cccnc4)C3)N2C(=O)[C@@H](NC(=O)c2cc3cc(C(F)(F)P(=O)(O)O)ccc3s2)C1 (single isomer, unassigned) [Compound 65, ((2-(((5S,8S,10aR)-3-acetyl-6-oxo-8-((S)-3-(pyridin-3-ylmethyl)pyrrolidine-1-carbonyl)decahydropyrrolo[1,2-a][1,5]diazocin-5-yl)carbamoyl)benzo[b]thiophen-5-yl)difluoromethyl)phosphonic acid or ((2-(((5S,8S,10aR)-3-acetyl-6-oxo-8-((R)-3-(pyridin-3-ylmethyl)pyrrolidine-1-carbonyl)decahydropyrrolo[1,2-a][1,5]diazocin-5-yl)carbamoyl)benzo[b]thiophen-5-yl)difluoromethyl)phosphonic acid] | 1000 to 10000 | 0.3 to 3
10 | CC(=O)N1CC[C@H]2CC[C@@H](C(=O)N3CCCC3Cc3ccccc3F)N2C(=O)[C@@H](NC(=O)c2cc3cc(C(F)(F)P(=O)(O)O)ccc3[nH]2)C1 (stereo partly drawn) [Compound 133, ((2-(((5S,8S,10aR)-3-acetyl-8-(2-(2-fluorobenzyl)pyrrolidine-1-carbonyl)-6-oxodecahydropyrrolo[1,2-a][1,5]diazocin-5-yl)carbamoyl)-1H-indol-5-yl)difluoromethyl)phosphonic acid] | 1000 to 10000 | 0.3 to 3
11 | CNC(=O)Cc1cc(-c2ccccc2)ccc1NC(=O)[C@@H]1CC[C@@H]2CCN(C(C)=O)C[C@H](NC(=O)c3cc4cc(C(F)(F)P(=O)(O)O)ccc4s3)C(=O)N21 [Compound 198, ((2-(((5S,8S,10aR)-3-acetyl-8-((3-(2-(methylamino)-2-oxoethyl)-[1,1′-biphenyl]-4-yl)carbamoyl)-6-oxodecahydrpyrrolo[1,2-a][1,5]diazocin-5-yl)carbamoyl)benzo[b]thiophen-5-yl)difluoromethyl)phosphonic acid] | 100 to 1000 | 0.3 to 3
12 | O=C(N[C@H]1CN(S(=O)(=O)CCc2ccccc2)CC[C@H]2CC[C@@H](C(=O)Nc3ccc(-c4ccccc4)cc3)N2C1=O)c1cc2cc(C(F)(F)P(=O)(O)O)ccc2s1 [Compound 268, ((2-(((5S,8S,10aR)-8-([1,1′-biphenyl]-4-ylcarbamoyl)-6-oxo-3-(phenethylsulfonyl)decahydropyrrolo[1,2-a][1,5]diazocin-5-yl)carbamoyl)benzo[b]thiophen-5-yl)difluoromethyl)phosphonic acid] | 1000 to 10000 | 0.3 to 3
13 | CC(=O)N1CC[C@H]2CC[C@@H](C(=O)N3CCCc4ccccc43)N2C(=O)[C@@H](NC(=O)c2cc3cc(C(F)(F)P(=O)(O)O)ccc3[nH]2)C1 [Compound 57, ((2-(((5S,8S,10aR)-3-acetyl-6-oxo-8-(1,2,3,4-tetrahydroquinoline-1-carbonyl)decahydropyrrolo[1,2-a][1,5]diazocin-5-yl)carbamoyl)-1H-indol-5-yl)difluoromethyl)phosphonic acid] | 1000 to 10000 | 0.3 to 3
14 | CC(=O)N1CC[C@H]2CC[C@@H](C(=O)N(C)C3CCCCC3)N2C(=O)[C@@H](NC(=O)c2cc3cc(C(F)(F)P(=O)(O)O)ccc3[nH]2)C1 [Compound 134] | 1000 to 10000 | 0.3 to 3
15 | CC(=O)N1CC[C@H]2CC[C@@H](C(=O)Nc3ccc(S(C)(=O)=O)cc3)N2C(=O)[C@@H](NC(=O)c2cc3cc(C(F)(F)P(=O)(O)O)ccc3s2)C1 [Compound 70, ((2-(((5S,8S,10aR)-3-acetyl-8-((4-(methylsulfonyl)phenyl)carbamoyl)-6-oxodecahydropyrrolo[1,2-a][1,5]diazocin-5-yl)carbamoyl)benzo[b]thiophen-5-yl)difluoromethyl)phosphonic acid] | 1000 to 10000 | 0.3 to 3
16 | CC(=O)N1CC[C@H]2CC[C@@H](C(=O)N3CCC(C(=O)N4CCCCC4)CC3)N2C(=O)[C@@H](NC(=O)c2cc3cc(C(F)(F)P(=O)(O)O)ccc3s2)C1 [Compound 192, ((2-(((5S,8S,10aR)-3-acetyl-6-oxo-8-(4-(piperidine-1-carbonyl)piperidine-1-carbonyl)decahydropyrrolo[1,2-a][1,5]diazocin-5-yl)carbamoyl)benzo[b]thiophen-5-yl)difluoromethyl)phosphonic acid] | 1000 to 10000 | 3 to 30
